Patent publication US20260078135A1, “POLYCYCLIC QUINAZOLINES FOR INHIBITION OF ERBB2” (Enliven Inc., priority 2022, published 2026)
Each block holds one molecule with its values, some of them ahead of it.

Legend:
[1] = biological target: T1, phosphorylated ERBB2 (pERBB2) (Homo sapiens, UniProt P04626); test: Detection of phosphorylated ERBB2 (pERBB2) by ELISA in BT-474 cells; format: cell-based; conditions: four hour incubation
T1 construct: endogenous in cells; host or cells: BT-474
Procedure, shortened: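 BT-474 cells were treated with compounds (fourfold dilutions, 10 μM to 0.01 nM final) for 4 h at 37 °C, then lysed. pERBB2 in lysates was quantified by ELISA with an HRP anti-phosphotyrosine detection antibody and TMB read at 450 nm; % relative activity was normalized to no-cell and 0.1% DMSO controls.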

Ba/F3 ERBB2 YVMA = Ba/F3 ERBB2 YVMA (Homo sapiens, UniProt P04626, DUP772-775, cells depend on it); test: Cell viability assay (CellTiter Glo), Ba/F3 cells engineered to express ERBB2 YVMA; format: cell-based, mouse; conditions: Ba/F3 cells expressing human ERBB2 YVMA mutant, 72 hours, read-out: Ba/F3 ERBB2 YVMA, IC50
Method: Cells were treated with compounds, and cell viability was measured as a metric of kinase inhibition.
BT-474, A431, MDA-MB-175VII, NCI-H1781, MCF7, and Ba/F3 cell lines were tested. The Ba/F3 cell line is IL-3-dependent mouse cell line derived from the C3H mouse strain. Ba/F3 cell lines were engineered to express human ERBB2 or EGFR kinases, rendering the cells IL-3 independent. The lines were generated via retroviral transduction utilizing a Moloney murine leukemia virus (MMLV) promoter, and constructs are stably integrated into the cell genome. The sequences of the ERBB2 and EGFR genes used were NCBI Reference Sequences NM_004448.3 and NM_005228.3, respectively.
BT-474, A431, MDA-MB-175VII, NCI-H1781 and MCF7 cells were grown in the appropriate growth medium as described in Table B2 below, and harvested at 50-80% confluence. BT-474, A431, MDA-MB-175VII, NCI-H1781 and MCF7 cells were counted and seeded at 2,000 or 1,500 cells per well in 384-well tissue culture plates (see Table B2). Similarly, Ba/F3 cell lines engineered to express EGFR, ERBB2, or ERBB2 mutants were grown, harvested, counted and seeded at 3000 cells per well in 96-well plates. A subset of wells contained media only (low control, “LC”).
Table B1 provides the growth media and number of cells seeded per well for the each cell line.
Compounds were dissolved in DMSO and serially diluted. Serially-diluted compound or a DMSO only control (high control, “HC”) was added to the plated cells in each well. Compounds were tested at concentrations of about 10 μM to 0.51 nM, using three-fold dilutions. The final proportion of DMSO never exceeded 0.1%.
Plates were placed in a 37° C., 5% CO2 incubator for 72 hours. Plates were then removed from the incubator and equilibrated for 15 minutes at room temperature. 40 μl of CellTiter Glo reagent (Promega) was added to measure the relative level of metabolically active cells by quantifying intracellular ATP concentrations. Plates were incubated for 30 minutes at room temperature, and luminescence was measured. Percent viability was normalized to a vehicle control only using the following formula: % viability=100×(Lumsample−LumLC)/(LumHC−LumLC). Graphical curves were fitted using a nonlinear regression model with a sigmoidal dose response.

[2] = biological target: T2, phosphorylated EGFR (pEGFR) (Homo sapiens, UniProt P00533); test: Detection of phosphorylated EGFR (pEGFR) by AlphaLISA in EGF-stimulated A431 cells; format: cell-based; conditions: A431 cells (10% FBS), 4 hours incubation, EGF 30 ng/mL for 10 minutes
T2 construct: performed to measure phosphorylated EGFR levels using A431 cells (10% FBS); endogenous in cells; host or cells: A431
Procedure, shortened: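 A431 cells in 10% FBS were preincubated with compound for 4 h at 37 °C, then stimulated with 30 ng/mL EGF for 10 min and lysed. pEGFR read by AlphaLISA. % inhibition normalised to DMSO and staurosporine controls; IC50 from four-parameter curve fit.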

Sequence of Ba/F3 ERBB2 YVMA (P04626 with tags, fused parts or gaps DUP772-775): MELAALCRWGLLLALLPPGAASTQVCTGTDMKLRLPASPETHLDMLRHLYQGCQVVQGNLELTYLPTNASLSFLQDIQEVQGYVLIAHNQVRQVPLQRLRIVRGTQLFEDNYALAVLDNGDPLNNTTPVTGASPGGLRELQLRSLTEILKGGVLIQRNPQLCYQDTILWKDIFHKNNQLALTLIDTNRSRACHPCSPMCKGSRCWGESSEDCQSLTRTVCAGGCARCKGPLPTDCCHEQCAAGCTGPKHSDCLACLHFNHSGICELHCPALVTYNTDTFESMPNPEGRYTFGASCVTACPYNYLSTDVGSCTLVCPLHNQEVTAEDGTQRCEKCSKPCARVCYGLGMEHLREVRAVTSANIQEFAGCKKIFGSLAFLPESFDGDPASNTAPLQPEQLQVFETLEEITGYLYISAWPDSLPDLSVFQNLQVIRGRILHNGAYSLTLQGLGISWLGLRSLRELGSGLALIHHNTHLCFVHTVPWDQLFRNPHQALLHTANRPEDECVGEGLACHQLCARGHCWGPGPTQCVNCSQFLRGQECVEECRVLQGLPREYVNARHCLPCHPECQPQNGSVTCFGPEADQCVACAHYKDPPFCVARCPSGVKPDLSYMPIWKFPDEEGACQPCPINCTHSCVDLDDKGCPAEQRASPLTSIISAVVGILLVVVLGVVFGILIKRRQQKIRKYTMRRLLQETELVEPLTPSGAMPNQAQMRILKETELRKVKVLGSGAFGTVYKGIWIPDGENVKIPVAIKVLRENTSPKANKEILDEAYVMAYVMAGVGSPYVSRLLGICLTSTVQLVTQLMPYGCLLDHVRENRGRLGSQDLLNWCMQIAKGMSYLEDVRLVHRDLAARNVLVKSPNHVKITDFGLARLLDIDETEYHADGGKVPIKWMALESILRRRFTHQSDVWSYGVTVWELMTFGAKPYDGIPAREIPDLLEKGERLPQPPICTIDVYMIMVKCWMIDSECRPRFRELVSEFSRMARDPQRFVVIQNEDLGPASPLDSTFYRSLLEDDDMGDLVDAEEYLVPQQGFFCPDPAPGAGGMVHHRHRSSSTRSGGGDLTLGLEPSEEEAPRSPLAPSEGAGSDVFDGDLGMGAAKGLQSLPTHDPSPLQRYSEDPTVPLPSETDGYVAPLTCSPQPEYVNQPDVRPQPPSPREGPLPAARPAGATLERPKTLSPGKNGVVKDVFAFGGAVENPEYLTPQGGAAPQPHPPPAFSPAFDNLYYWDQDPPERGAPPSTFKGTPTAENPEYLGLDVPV
T2 sequence (P00533 25-1210): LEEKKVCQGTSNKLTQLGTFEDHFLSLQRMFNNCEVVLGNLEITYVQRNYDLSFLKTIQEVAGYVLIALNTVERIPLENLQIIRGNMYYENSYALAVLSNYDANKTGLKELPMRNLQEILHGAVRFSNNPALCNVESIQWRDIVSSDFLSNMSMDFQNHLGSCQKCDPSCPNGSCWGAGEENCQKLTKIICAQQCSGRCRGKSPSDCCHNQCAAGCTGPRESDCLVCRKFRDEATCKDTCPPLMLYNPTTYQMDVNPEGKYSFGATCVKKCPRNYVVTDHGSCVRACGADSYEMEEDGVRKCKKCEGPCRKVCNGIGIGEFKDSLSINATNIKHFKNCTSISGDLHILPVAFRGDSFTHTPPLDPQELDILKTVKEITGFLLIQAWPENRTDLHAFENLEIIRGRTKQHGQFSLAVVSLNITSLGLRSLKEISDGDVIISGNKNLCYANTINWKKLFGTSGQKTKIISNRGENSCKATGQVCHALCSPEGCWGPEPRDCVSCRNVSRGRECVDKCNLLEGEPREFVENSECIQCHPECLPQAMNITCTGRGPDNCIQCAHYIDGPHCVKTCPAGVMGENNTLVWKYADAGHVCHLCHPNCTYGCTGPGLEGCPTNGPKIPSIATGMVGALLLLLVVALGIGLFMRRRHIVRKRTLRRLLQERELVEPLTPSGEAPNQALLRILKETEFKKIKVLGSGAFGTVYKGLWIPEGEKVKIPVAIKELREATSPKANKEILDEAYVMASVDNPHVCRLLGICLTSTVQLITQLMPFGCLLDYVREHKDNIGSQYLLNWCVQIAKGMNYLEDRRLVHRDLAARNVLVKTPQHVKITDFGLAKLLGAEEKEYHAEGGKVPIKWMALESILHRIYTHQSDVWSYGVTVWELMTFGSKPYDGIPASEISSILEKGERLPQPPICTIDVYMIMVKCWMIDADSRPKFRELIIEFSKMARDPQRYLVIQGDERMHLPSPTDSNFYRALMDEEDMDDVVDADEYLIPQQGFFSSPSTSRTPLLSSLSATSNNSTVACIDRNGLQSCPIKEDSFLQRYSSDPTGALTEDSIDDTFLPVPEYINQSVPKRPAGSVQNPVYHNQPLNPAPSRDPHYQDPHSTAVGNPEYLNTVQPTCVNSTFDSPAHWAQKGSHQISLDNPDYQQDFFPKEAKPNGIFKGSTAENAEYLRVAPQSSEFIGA
T1 sequence (P04626 23-1255): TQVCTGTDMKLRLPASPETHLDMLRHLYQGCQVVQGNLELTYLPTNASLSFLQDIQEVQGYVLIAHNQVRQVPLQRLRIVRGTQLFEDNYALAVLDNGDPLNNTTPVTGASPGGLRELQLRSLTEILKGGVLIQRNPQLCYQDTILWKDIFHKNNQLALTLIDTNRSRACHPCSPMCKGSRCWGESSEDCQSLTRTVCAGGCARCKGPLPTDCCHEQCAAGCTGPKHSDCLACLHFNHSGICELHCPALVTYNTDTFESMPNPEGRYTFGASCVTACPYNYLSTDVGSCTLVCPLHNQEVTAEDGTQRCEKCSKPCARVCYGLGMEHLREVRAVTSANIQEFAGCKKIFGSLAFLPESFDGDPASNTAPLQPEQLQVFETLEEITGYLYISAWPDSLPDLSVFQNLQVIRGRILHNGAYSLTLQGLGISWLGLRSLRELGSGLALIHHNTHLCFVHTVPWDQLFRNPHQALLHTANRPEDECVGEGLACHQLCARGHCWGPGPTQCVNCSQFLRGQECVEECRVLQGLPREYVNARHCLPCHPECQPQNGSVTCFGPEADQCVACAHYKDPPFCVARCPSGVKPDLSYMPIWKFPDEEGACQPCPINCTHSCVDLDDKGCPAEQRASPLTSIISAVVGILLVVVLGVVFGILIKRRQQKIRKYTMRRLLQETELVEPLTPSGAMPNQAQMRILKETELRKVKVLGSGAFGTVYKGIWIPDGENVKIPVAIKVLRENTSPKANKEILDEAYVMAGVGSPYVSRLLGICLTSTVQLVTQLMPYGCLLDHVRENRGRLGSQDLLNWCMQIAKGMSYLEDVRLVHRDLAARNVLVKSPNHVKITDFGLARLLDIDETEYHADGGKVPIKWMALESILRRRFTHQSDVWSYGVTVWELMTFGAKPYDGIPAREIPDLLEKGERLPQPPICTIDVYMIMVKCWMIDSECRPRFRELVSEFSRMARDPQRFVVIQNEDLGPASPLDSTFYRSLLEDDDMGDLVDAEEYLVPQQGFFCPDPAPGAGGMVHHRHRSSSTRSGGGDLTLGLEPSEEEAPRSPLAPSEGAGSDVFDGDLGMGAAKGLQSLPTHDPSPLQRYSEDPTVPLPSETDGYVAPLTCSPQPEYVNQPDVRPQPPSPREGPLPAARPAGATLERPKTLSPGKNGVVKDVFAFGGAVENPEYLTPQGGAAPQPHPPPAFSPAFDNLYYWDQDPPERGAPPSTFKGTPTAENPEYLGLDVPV

Compound: CC#CC(=O)N1CCN2c3cc4c(Nc5ccc(Oc6ccn7ncnc7c6)c(C)c5)ncnc4cc3OC[C@@H]2C1 [Compound 13, (S)-1-(11-((4-([1,2,4]triazolo[1,5-a]pyridin-7-yloxy)-3-methylphenyl)amino)-1,2,4a,5-tetrahydropyrazino[1′,2′:4,5][1,4]oxazino[3,2-g]quinazolin-3(4H)-yl)but-2-yn-1-one]
IC50 [1]: 13 nM
GI50 (Ba/F3 ERBB2 YVMA): 6.24 nM
IC50 [2]: 254 nM

Compound: Cc1cc(Nc2ncnc3ccc4c(c23)OC[C@@H]2CN4CCN2C)ccc1Oc1ccn2ncnc2c1 [Compound 50, (3S)—N-(4-([1,2,4]triazolo[1,5-a]pyridin-7-yloxy)-3-methylphenyl)-4-methyl-3,4,5,6-tetrahydro-2H-3,7-methano[1,4,7]oxadiazonino[2,3-f]quinazolin-13-amine]
IC50 [1]: 195 nM
GI50 (Ba/F3 ERBB2 YVMA): > 500 nM
IC50 [2]: > 10000 nM

Compound: Cc1cc(Nc2ncnc3cnc4c(c23)OC[C@H]2CN4CCN2C(=O)/C=C/CN(C)C)c(F)cc1Oc1ccn2ncnc2c1 [Compound 83, (E)-1-((3R)-13-((4-([1,2,4]triazolo[1,5-a]pyridin-7-yloxy)-2-fluoro-5-methylphenyl)amino)-2,3,5,6-tetrahydro-4H-3,7-methanopyrimido[5′,4′:4,5]pyrido[3,2-b][1,4,7]oxadiazonin-4-yl)-4-(dimethylamino)but-2-en-1-one]
IC50 [1]: 17.3 nM
GI50 (Ba/F3 ERBB2 YVMA): 14 nM
IC50 [2]: 344 nM

Compound: Cc1cc(Nc2ncnc3ccc4c(c23)OC[C@H]2CN4CCN2C(=O)/C=C/[C@@H](C)N(C)C)c(F)cc1Oc1ccn2ncnc2c1 [Compound 90, (4R,E)-1-((3R)-13-((4-([1,2,4]triazolo[1,5-a]pyridin-7-yloxy)-2-fluoro-5-methylphenyl)amino)-2,3,5,6-tetrahydro-4H-3,7-methano[1,4,7]oxadiazonino[2,3-f]quinazolin-4-yl)-4-(dimethylamino)pent-2-en-1-one]
IC50 [1]: 50.4 nM
GI50 (Ba/F3 ERBB2 YVMA): 28.7 nM
IC50 [2]: > 10000 nM

Compound: Cc1ccc(Oc2ccc(Nc3ncnc4ccc5c(c34)OC[C@H]3CN5CCN3C(=O)/C=C/CN(C)C)cc2C)cn1 [Compound 84, (E)-4-(dimethylamino)-1-((3R)-13-((3-methyl-4-((6-methylpyridin-3-yl)oxy)phenyl)amino)-2,3,5,6-tetrahydro-4H-3,7-methano[1,4,7]oxadiazonino[2,3-f]quinazolin-4-yl)but-2-en-1-one]
IC50 [1]: 14.6 nM
GI50 (Ba/F3 ERBB2 YVMA): 2.95 nM
IC50 [2]: 60.1 nM

Compound: Cc1cc(Nc2ncnc3ccc4c(c23)OC[C@H]2CN(C(=O)/C=C/CN(C)C)CCN42)ccc1Oc1ccc2c(c1)ncn2C [Compound 22, (R,E)-4-(dimethylamino)-1-(4-((3-methyl-4-((1-methyl-1H-benzo[d]imidazol-5-yl)oxy)phenyl)amino)-6a,7,9,10-tetrahydropyrazino[1′,2′:4,5][1,4]oxazino[2,3-f]quinazolin-8(6H)-yl)but-2-en-1-one]
IC50 [1]: 22.8 nM
GI50 (Ba/F3 ERBB2 YVMA): 2.12 nM
IC50 [2]: 544 nM

Compound: C=CC(=O)N1CCN2c3ccc4ncnc(Nc5ccc(Oc6ccn7ncnc7c6)c(C)c5)c4c3OC[C@H]2C1 [Compound 6, (R)-1-(4-((4-([1,2,4]triazolo[1,5-a]pyridin-7-yloxy)-3-methylphenyl)amino)-6a,7,9,10-tetrahydropyrazino[1′,2′:4,5][1,4]oxazino[2,3-f]quinazolin-8(6H)-yl)prop-2-en-1-one]
IC50 [1]: 7.19 nM
GI50 (Ba/F3 ERBB2 YVMA): 6.23 nM
IC50 [2]: 540 nM

Compound: CN(C)C/C=C/C(=O)N1CCN2c3ccc4ncnc(Nc5ccc(Oc6ccn7ncnc7c6)cc5F)c4c3OC[C@@H]2C1 [Compound 95, (S,E)-1-(4-((4-([1,2,4]triazolo[1,5-a]pyridin-7-yloxy)-2-fluorophenyl)amino)-6a,7,9,10-tetrahydropyrazino[1′,2′:4,5][1,4]oxazino[2,3-f]quinazolin-8(6H)-yl)-4-(dimethylamino)but-2-en-1-one]
IC50 [1]: 32.3 nM
GI50 (Ba/F3 ERBB2 YVMA): 19.6 nM
IC50 [2]: 2780 nM

Compound: C=CC(=O)N1CCN2c3cc4c(Nc5ccc(Oc6ccn7ncnc7c6)c(C)c5)ncnc4cc3OC[C@@H]2C1 [Compound 3, (S)-1-(11-((4-([1,2,4]triazolo[1,5-a]pyridin-7-yloxy)-3-methylphenyl)amino)-1,2,4a,5-tetrahydropyrazino[1′,2′:4,5][1,4]oxazino[3,2-g]quinazolin-3(4H)-yl)prop-2-en-1-one]
IC50 [1]: 12.8 nM
GI50 (Ba/F3 ERBB2 YVMA): 10.4 nM
IC50 [2]: 212 nM

Compound: Cc1cc(Nc2ncnc3ccc4c(c23)OC[C@H]2CN4CCN2C(=O)/C=C/CN(C)C)ccc1Oc1ccc2c(c1)ncn2C [Compound 31, (E)-4-(dimethylamino)-1-((3R)-13-((3-methyl-4-((1-methyl-1H-benzo[d]imidazol-5-yl)oxy)phenyl)amino)-2,3,5,6-tetrahydro-4H-3,7-methano[1,4,7]oxadiazonino[2,3-f]quinazolin-4-yl)but-2-en-1-one]
IC50 [1]: 19.9 nM
GI50 (Ba/F3 ERBB2 YVMA): 12.6 nM
IC50 [2]: 246 nM

Compound: CN(C)C/C=C/C(=O)N1CCN2C[C@@H]1COc1c2ccc2ncnc(Nc3ccc(Oc4ccn5ncnc5c4)cc3)c12 [Compound 77, (E)-1-((3R)-13-((4-([1,2,4]triazolo[1,5-a]pyridin-7-yloxy)phenyl)amino)-2,3,5,6-tetrahydro-4H-3,7-methano[1,4,7]oxadiazonino[2,3-f]quinazolin-4-yl)-4-(dimethylamino)but-2-en-1-one]
IC50 [1]: 6.51 nM
GI50 (Ba/F3 ERBB2 YVMA): 14.4 nM
IC50 [2]: 460 nM

Continued, in another order:

IC50 [1]: 25 nM
IC50 [2]: 3120 nM
Compound: CN(C)C/C=C/C(=O)N1CCN2c3ccc4ncnc(Nc5ccc(Oc6ccn7ncnc7c6)c(F)c5)c4c3OC[C@H]2C1 [Compound 118, (R,E)-1-(4-((4-([1,2,4]triazolo[1,5-a]pyridin-7-yloxy)-3-fluorophenyl)amino)-6a,7,9,10-tetrahydropyrazino[1′,2′:4,5][1,4]oxazino[2,3-f]quinazolin-8(6H)-yl)-4-(dimethylamino)but-2-en-1-one]
GI50 (Ba/F3 ERBB2 YVMA): 35.7 nM

IC50 [1]: 65 nM
IC50 [2]: > 10000 nM
Compound: Cc1cc(Nc2ncnc3cnc4c(c23)OC[C@H]2CNCCN42)ccc1Oc1ccc2c(c1)ncn2C [Compound 130, (R)—N-(3-methyl-4-((1-methyl-1H-benzo[d]imidazol-5-yl)oxy)phenyl)-6,6a,7,8,9,10-hexahydropyrazino[1,2-d]pyrimido[5′,4′:4,5]pyrido[3,2-b][1,4]oxazin-4-amine]
GI50 (Ba/F3 ERBB2 YVMA): 170 nM

IC50 [1]: 35.3 nM
IC50 [2]: > 10000 nM
Compound: Cc1cc(Nc2ncnc3cnc4c(c23)OC[C@H]2CN(C)CCN42)ccc1Oc1cc2ncn(C)c2cn1 [Compound 128, (R)-8-methyl-N-(3-methyl-4-((3-methyl-3H-imidazo[4,5-c]pyridin-6-yl)oxy)phenyl)-6,6a,7,8,9,10-hexahydropyrazino[1,2-d]pyrimido[5′,4′:4,5]pyrido[3,2-b][1,4]oxazin-4-amine]
GI50 (Ba/F3 ERBB2 YVMA): 211 nM

IC50 [2]: > 10000 nM
Compound: Cc1cc(Nc2ncnc3ccc4c(c23)O[C@@H]2CCN(C)C[C@@H]2N4C)ccc1Oc1ccc2c(c1)ncn2C [Compound 123, (7aS,11aR)-7,9-dimethyl-N-(3-methyl-4-((1-methyl-1H-benzo[d]imidazol-5-yl)oxy)phenyl)-7a,8,9,10,11,11a-hexahydro-7H-pyrido[3′,4′:5,6][1,4]oxazino[2,3-f]quinazolin-1-amine]
GI50 (Ba/F3 ERBB2 YVMA): 46.4 nM

IC50 [2]: > 10000 nM
Compound: Cc1cc(Nc2ncnc3ccc4c(c23)O[C@@H]2CCN(C)C[C@@H]2N4C)ccc1Oc1ccc2c(c1)ncn2C [Compound 129, (7aS,11aR)-7,9-dimethyl-N-(3-methyl-4-((1-methyl-1H-benzo[d]imidazol-5-yl)oxy)phenyl)-7a,8,9,10,11,11a-hexahydro-7H-pyrido[3′,4′:5,6][1,4]oxazino[2,3-f]quinazolin-1-amine]
GI50 (Ba/F3 ERBB2 YVMA): 111 nM
